This is an account of results in article PMC12645137 (Current Neuropharmacology, 2025).

In experiment [1] the target is T1, AChE (source Electric eel) (Electrophorus electricus, UniProt O42275).
T1 construct: from tissue
As to the kind of experiment: biochemical. The note with it: for inhibition at 62.5 µg/mL / inhibition at 125 µg/mL / inhibition at 250 µg/mL / inhibition at 500 µg/mL / inhibition at 1000 µg/mL: read-out: % AChE Inhibition. Here is the method: (§1) The cholinesterase inhibitory potentials of our synthesized compounds were evaluated against cholinesterase enzymes (AChE/BChE). The AChE (source Electric eel) and BChE (source equine serum) were used in the study following previously published Ellman's assay. The assay basic principle involves the hydrolytic breakdown of acetylthiocholine iodide (ATChI) by AChE and butyryl thiocholine iodide (BTChI) by BChE enzymes, leading to the formation of an intermediate compound which is subsequently complexed with 5,5-dithio bis nitrobenzoic acid (DTNB) to form a UV-detectable compound. The yellowish color product indicates the hydrolysis of ATChI and BTChI substrates by respective enzymes, which were analyzed at 412 nm using a UV-visible spectrophotometer. […] A test sample of 1000 µl was taken in a cuvette, to which enzyme solution (50 µl) and DTNB reagent of 50 µL were added. The AChE (0.03 U/ml) and BChE (0.01 U/ml) solutions were prepared in 0.1 M phosphate buffer having pH 8.0. The ATChI and BTChI substrate solutions (0.0005 M) and 0.0002273 M solution of DTNB were prepared using distilled water and stored at 8°C before further use. For 15 minutes, the solution mixture was incubated at 30 °C, after which a solution of the substrate (50 µl) was added and then subjected to spectroscopic analysis. Using a double beam spectrophotometer, the sample absorbance was measured for 4 minutes at 412 nm beside the time of reaction. […] All values were taken in triplicate under the same conditions.
(§2) Enzymatic activity percentage=V/Vmaxx100
(§3) V is the reaction rate in the inhibitor's presence, whereas Vmax is the reaction rate in the absence of the inhibitor.

Experiment [2] addresses T2, BChE (source equine serum) (Equus caballus, UniProt P81908).
T2 construct: from tissue; host or cells: equine serum
As to the kind of experiment: biochemical. Particulars: for inhibition at 62.5 µg/mL / inhibition at 125 µg/mL / inhibition at 250 µg/mL / inhibition at 500 µg/mL / inhibition at 1000 µg/mL: read-out: % BChE Inhibition. The method, then: as §1, §2, §3

Another experiment in a line: DPPH antioxidant assay. It counts as physicochemical. The note with it: for % Inhibition (DPPH free radicals): mean ± SEM. The method, then: To evaluate the in-vitro antioxidant potential of the synthesized derivatives, a previously reported 1,1 Diphenyl, 2 Picrylhydrazyl (DPPH) assay was utilized. The DPPH solution was prepared by dissolving twenty-four mg DPPH in methanol (100 ml). Test sample solutions in various concentrations (62.50 to 1000 μg/mL) were also prepared. From each dilution, 1 ml sample solution was taken to which 1 ml solution of DPPH was added. The solution mixture was incubated at 23°C for 30 minutes in the dark and then subjected to a UV-visible spectrophotometer to note the absorbance at 517 nm. The absorbance values of all samples were taken in triplicate. Ascorbic acid served as positive control, while negative control only contained a solution of DPPH having no test samples. The % free radical scavenging potential of our compounds was determined by the given formula.
% free radical scavenging activity = [drawing 2] x100
X is the control absorbance, whereas X1 is the absorbance of the test sample.
A general note: Loss of DPPH colour is used to gauge radical scavenging.

T1 sequence (O42275 24-633): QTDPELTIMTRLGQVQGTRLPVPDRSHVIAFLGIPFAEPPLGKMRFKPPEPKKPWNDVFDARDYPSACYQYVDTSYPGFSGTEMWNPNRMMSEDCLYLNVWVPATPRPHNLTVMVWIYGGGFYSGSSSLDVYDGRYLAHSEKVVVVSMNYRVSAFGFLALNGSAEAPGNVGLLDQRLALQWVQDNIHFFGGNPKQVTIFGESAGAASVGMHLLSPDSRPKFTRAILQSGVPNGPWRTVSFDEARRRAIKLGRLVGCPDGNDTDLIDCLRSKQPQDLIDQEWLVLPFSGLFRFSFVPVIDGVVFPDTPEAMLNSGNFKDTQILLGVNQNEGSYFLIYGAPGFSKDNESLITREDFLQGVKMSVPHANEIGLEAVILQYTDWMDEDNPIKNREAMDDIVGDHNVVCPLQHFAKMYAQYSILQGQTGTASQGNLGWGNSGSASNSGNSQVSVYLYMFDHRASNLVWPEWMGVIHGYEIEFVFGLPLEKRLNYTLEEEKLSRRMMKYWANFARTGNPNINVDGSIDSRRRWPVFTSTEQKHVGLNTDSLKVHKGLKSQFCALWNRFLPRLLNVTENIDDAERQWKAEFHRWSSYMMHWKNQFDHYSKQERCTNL
T2 sequence (P81908 whole entry): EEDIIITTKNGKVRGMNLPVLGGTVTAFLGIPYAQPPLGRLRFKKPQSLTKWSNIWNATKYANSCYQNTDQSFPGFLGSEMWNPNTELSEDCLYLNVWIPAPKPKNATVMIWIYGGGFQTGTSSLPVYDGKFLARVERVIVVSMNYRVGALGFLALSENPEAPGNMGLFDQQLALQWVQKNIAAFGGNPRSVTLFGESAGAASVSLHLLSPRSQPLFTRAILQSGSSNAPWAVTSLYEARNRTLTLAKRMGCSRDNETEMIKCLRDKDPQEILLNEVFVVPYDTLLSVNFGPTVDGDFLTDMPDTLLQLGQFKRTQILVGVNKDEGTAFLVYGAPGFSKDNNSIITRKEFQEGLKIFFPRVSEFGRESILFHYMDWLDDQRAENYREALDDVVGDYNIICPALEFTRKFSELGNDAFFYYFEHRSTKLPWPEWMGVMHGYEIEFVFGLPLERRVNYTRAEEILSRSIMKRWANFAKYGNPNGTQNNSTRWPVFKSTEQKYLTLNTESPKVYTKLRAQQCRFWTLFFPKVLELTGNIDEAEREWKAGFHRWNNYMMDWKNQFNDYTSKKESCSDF

Consider `C/C(=N/Cc1ccc(C)cc1)[C@H]1CC[C@H]2[C@@H]3CCC4=CC(=O)CC[C@]4(C)[C@H]3CC[C@]12C` [AN2, (8S,9S,10R,13S,14S)-17-((Z)-1-((4-methylbenzyl)imino)ethyl)-10,13-dimethyl-1,2,6,7,8,9,10,11,12,13,14,15,16,17-tetradecahydro-3H-cyc-lopenta[a]phenanthren-3-one], for which the IC50 (commonly the concentration that gives 50% inhibition) in experiment [1] amounted to 173 µM; in experiment [2] it was 138 µM; in the experiment “DPPH antioxidant assay”, 62.5 µM. Also, the inhibition (in general, the change of the read-out against control, counted positive when it falls) at 62.5 µg/mL in experiment [1] was 48.3%; in experiment [2], 50.8%. In addition, the inhibition at 125 µg/mL was 57.4% in experiment [1] and 52.9% in experiment [2]. The inhibition at 250 µg/mL in experiment [1] was 64.3%; in experiment [2], 74.1%. The inhibition at 500 µg/mL is 75.7 ± 1.26% in experiment [1] and 72% in experiment [2]. Moreover, the inhibition at 1000 µg/mL in experiment [1] came to 75.7 ± 2.82%; in experiment [2] it was 77.5 ± 1.29%. Besides, the “% Inhibition (DPPH free radicals)” value was 55.65 ± 2.44% in “DPPH antioxidant assay” (62.5 µg/ml); 57.44 ± 2.47% in the experiment “DPPH antioxidant assay” (125 µg/ml); 65.77 ± 3.32% in “DPPH antioxidant assay” (250 µg/ml); 66.26 ± 1.60% in the experiment “DPPH antioxidant assay” (500 µg/ml); 71.47 ± 1.83% in the experiment “DPPH antioxidant assay” (1000 µg/ml).
Turning to `COc1ccc(C/N=C(/C)[C@H]2CC[C@H]3[C@@H]4CCC5=CC(=O)CC[C@]5(C)[C@H]4CC[C@]23C)cc1OC` [AN3, (8S,9S,10R,13S,14S,17S)-17-((Z)-1-((3,4-dimethoxybenzyl)imino)ethyl)-10,13-dimethyl-1,2,6,7,8,9,10,11,12,13,14,15,16,17-tetradecahydro-3H-cyclo-penta[a]phenanthren-3-one], the IC50 turned out to be 133 µM in experiment [1], 112 µM in experiment [2] and 86.4 µM in “DPPH antioxidant assay”. The inhibition at 62.5 µg/mL in experiment [1] was 50.7%; in experiment [2], 55.5%. Also, the inhibition at 125 µg/mL in experiment [1] was 62.9%; in experiment [2], 59.9%. The inhibition at 250 µg/mL in experiment [1] was 64.6%; in experiment [2] it was 64.3%. Besides, the inhibition at 500 µg/mL in experiment [1] is 78.2%; in experiment [2], 81.8%. The inhibition at 1000 µg/mL in experiment [1] is 82.8 ± 2.02%; in experiment [2] it was 87.9 ± 1.96%. The “% Inhibition (DPPH free radicals)” value amounted to 54.18 ± 2.16% in the experiment “DPPH antioxidant assay” (62.5 µg/ml); 56.86 ± 2.33% in “DPPH antioxidant assay” (125 µg/ml); 61.18 ± 2.23% in the experiment “DPPH antioxidant assay” (250 µg/ml); 66.44 ± 2.58% in the experiment “DPPH antioxidant assay” (500 µg/ml); 72.32 ± 1.37% in the experiment “DPPH antioxidant assay” (1000 µg/ml).
Take `C/C(=N/Cc1ccc(Cl)cc1)[C@H]1CC[C@H]2[C@@H]3CCC4=CC(=O)CC[C@]4(C)[C@H]3CC[C@]12C` [AN4, (8S,9S,10R,13S,14S,17S)-17-((Z)-1-((4-chlorobenzyl)imino)ethyl)-10,13-dimethyl-1,2,6,7,8,9,10,11,12,13,14,15,16,17-tetradecahydro-3H-cyclopenta [a]phenanthren-3-one]: the values for the IC50 (in experiment [1]; in experiment [2]; in “DPPH antioxidant assay”) were 213 µM, 149 µM and 188 µM, respectively. The inhibition at 62.5 µg/mL was 47% in experiment [1] and 49.5% in experiment [2]. The inhibition at 125 µg/mL in experiment [1] was 52.7%; in experiment [2] it was 56.9%. Moreover, the inhibition at 250 µg/mL in experiment [1] was 60.3%; in experiment [2] it was 63.1%. The inhibition at 500 µg/mL was 67.7% in experiment [1] and 64.7% in experiment [2]. Also, the values for the inhibition at 1000 µg/mL in experiment [1] and in experiment [2] were 70 ± 2.26% and 76.3 ± 1.56%, respectively. The “% Inhibition (DPPH free radicals)” value in the experiment “DPPH antioxidant assay” (62.5 µg/ml) was 46.88 ± 0.65%; in the experiment “DPPH antioxidant assay” (125 µg/ml), 55.52 ± 3.43%; in “DPPH antioxidant assay” (250 µg/ml), 60.69 ± 1.92%; in the experiment “DPPH antioxidant assay” (500 µg/ml), 66.80 ± 3.47%; in “DPPH antioxidant assay” (1000 µg/ml) it was 69.87 ± 2.81%.
As to `C/C(=N/Cc1ccccc1)[C@H]1CC[C@H]2[C@@H]3CCC4=CC(=O)CC[C@]4(C)[C@H]3CC[C@]12C` [AN5, (8S,9S,10R,13S,14S)-17-((Z)-1-(benzylimino)ethyl)-10,13-dimethyl-1,2,6,7,8,9,10,11, 12,13,14,15,16,17-tetradecahydro-3H cyclopenta[a]phenan-thren-3-one], the figures for the IC50 (in experiment [1]; in experiment [2]; in the experiment “DPPH antioxidant assay”) were 156 µM, 63 µM and 110 µM, respectively. Besides, the inhibition at 62.5 µg/mL in experiment [1] is 50.4%; in experiment [2], 58.1%. For the same molecule, the inhibition at 125 µg/mL in experiment [1] is 59.7%; in experiment [2], 65.9%. Further, the inhibition at 250 µg/mL was 65.2% in experiment [1] and 71.4% in experiment [2]. The inhibition at 500 µg/mL is 77.3% in experiment [1] and 75.8% in experiment [2]. Besides, the inhibition at 1000 µg/mL in experiment [1] is 83.5 ± 2.31%; in experiment [2], 85.5 ± 2.83%. In addition, the “% Inhibition (DPPH free radicals)” value in the experiment “DPPH antioxidant assay” (62.5 µg/ml) was determined as 52.18 ± 1.42%; in the experiment “DPPH antioxidant assay” (125 µg/ml) it was 56.99 ± 2.50%; in the experiment “DPPH antioxidant assay” (250 µg/ml), 65.46 ± 1.83%; in the experiment “DPPH antioxidant assay” (500 µg/ml), 67.51 ± 2.56%; in “DPPH antioxidant assay” (1000 µg/ml) it was 73.12 ± 1.04%.
In turn, `O=C1O[C@H]([C@@H](O)CO)C(O)=C1O` [Ascorbic Acid, Ascorbic acid, reference compound] yielded an IC50 in “DPPH antioxidant assay” of 54.1 µM. Also, the “% Inhibition (DPPH free radicals)” value in “DPPH antioxidant assay” (62.5 µg/ml) was 67.69 ± 2.18%; in the experiment “DPPH antioxidant assay” (125 µg/ml) it was 71.25 ± 4.29%; in the experiment “DPPH antioxidant assay” (250 µg/ml), 74.50 ± 3.04%; in “DPPH antioxidant assay” (500 µg/ml) it was 86.00 ± 0.70%; in “DPPH antioxidant assay” (1000 µg/ml) it was 91.17 ± 1.62%.
